Legend:
[1] = tested on: Factor Xa; conditions: cited from earlier work
[2] = Thorough QT study (QT/QTc interval, ECG); format: in vivo, human; conditions: for highest upper limit of 2-sided 90% CI for ΔΔQTcF: Day 1 and Day 4 postdose
[3] = cited from earlier work; for chronic clopidogrel vs aspirin monotherapy: atherosclerosis, including MI within 35 days
[4] = AXIOMATIC-TKR Phase II trial; format: in vivo, human; conditions: 25 mg twice daily
Description: […]. […] (Weitz, et al., Milvexian for the Prevention of Venous Thromboembolism, N. Engl. […].

[5] = Safety and tolerability of milvexian (thorough QT study / general); format: in vivo, human
Description: All 66 (100.0%) participants enrolled in the study received at least one entire dose of study intervention.

[6] = tested on: Factor XI; experiment: Factor XI clotting activity, AXIOMATIC-SSP; format: in vivo, human
Description: As used herein, “Factor XI Clotting Activity” is determined utilizing an aPTT-based 1-stage clotting time assay. Serial dilutions of normal pooled plasma are mixed with FXI-depleted plasma and the clotting times are measured according to standard aPTT protocol, to establish a reference range. Subject test plasma is treated in the same way and compared with the reference plasma.
In some embodiments, the Factor XI Clotting Activity is measured as follows: Factor XI (FXI) activity is measured using a modification of the activated partial thromboplastin time (aPTT) using Actin FS (Siemens Healthcare) on the Siemens BCS®XP analyzer. […]. The reference standard, at approximately 100%, is diluted by the BCS®XP analyzer in saline to generate pre-selected calibration levels of FXI. The calibration curve is plotted with FXI activity in percent (%) on the x-axis and clotting time in seconds on the y-axis. A log/lin regression curve fit is used. The samples to be tested are mixed with FXI deficient plasma (containing less than 1% FXI and at least 75% of all the other factors) to normalize all other factors. APTT reagent (Actin FS) is added and the mixture is incubated. Following incubation, calcium chloride is added to the mixture and the time to clot formation (measured optically) is compared to the time on the calibration curve. Samples are tested at the base dilution (1:10) prepared by the BCS®XP in saline. In other embodiments, formation of the fibrin clot is measured by mechanical methods (viscosity).
[…]. […] […].

[7] = Population pharmacokinetic analysis of AXIOMATIC-SSP PK data; format: in vivo, human; conditions: 25 mg BID oral
[8] = AXIOMATIC-SSP treatment discontinuation / completion; conditions: 200 mg BID, primarily due to AEs
Description: The study enrolled participants ≥40 years of age who had ischemic stroke or TIA. Ischemic stroke was defined as a neurological deficit attributable to a non-lacunar, acute brain infarction detected by neuroimaging and relevant to the clinical symptoms and National Institutes of Health Stroke Score (NIHSS)≤7 at the time of randomization. TIA was defined as acute onset neurological deficit attributable to focal ischemia of the brain by history or examination, with complete resolution of the deficit and no brain infarction on neuroimaging and ABCD score ≥6 or presence of motor symptoms. Evidence of relevant intracranial or cervical arterial atherosclerotic plaque, ulceration or thrombus in a feeding artery documented by imaging was required regardless of whether the index event was ischemic stroke or TIA, and all participants were required to have a Modified Rankin Score ≤3 before the index event. […] Following informed consent, participants received ASA 100 mg QD and a single loading dose of clopidogrel 300 mg if not already given as standard of care. […] A second MRI was performed on Day 90±6 days. All participants were required to remain on study treatment until the Day 90 MRI was performed up to Day 96.

[9] = phase III, ACS patients, in combination with dual antiplatelet therapy
[10] = dose of 25 mg, 50 mg, or 100 mg
[11] = 25 mg BID, Day 21 anytime, N=233
[12] = 25 mg BID, Day 90 anytime, N=223

## O=C(NC[C@H]1CN(c2ccc(N3CCOCC3=O)cc2)C(=O)O1)c1ccc(Cl)s1 [rivaroxaban]
[1]; [9]
  risk of death from cardiovascular causes, myocardial infarction, and stroke: reduced the risk of death from cardiovascular causes, myocardial infarction, and stroke
  risk of major bleeding: increased the risk of major bleeding
[1]; post-ACS care
  bleeding risks: increased bleeding risks
  cardiovascular events: reduced cardiovascular events
  thrombin generation: decreased thrombin generation

## COc1c(N2C[C@@H]3CCCN[C@@H]3C2)c(F)cc2c(=O)c(C(=O)O)cn(C3CC3)c12 [moxifloxacin, reference compound]
[2]; following moxifloxacin
  participants with treatment-emergent change from baseline of QTcB>60 ms, number: One
  participants with treatment-emergent change from baseline of QTcB>60 ms, percent: 1.7%
[2]; single dose 400 mg moxifloxacin
  assay sensitivity (QTc, positive control): Assay sensitivity for moxifloxacin was also demonstrated

## CC(=O)Oc1ccccc1C(=O)O [aspirin]
[3]
  chronic clopidogrel vs aspirin monotherapy: comparable results
[3]; pooled randomized trials vs control, secondary prevention of ACS or chronic CAD
  risk and severity of recurrent MACE: reduces the risk and severity of early and late recurrent MACE

## COC(=O)[C@H](c1ccccc1Cl)N1CCc2sccc2C1 [clopidogrel]
[3]
  chronic clopidogrel vs aspirin monotherapy: comparable results

## C[C@@H]1CCC[C@H](n2cnc(-c3cc(Cl)ccc3-n3cc(Cl)nn3)cc2=O)c2cc(ccn2)-c2c(cnn2C(F)F)NC1=O [milvexian, (5R,9S)-9-(4-(5-chloro-2-(4-chloro-1H-1,2,3-triazol-1-yl)phenyl)-6-oxopyrimidin-1(6H)-yl)-2^1-(difluoromethyl)-5-methyl-2^1H-3-aza-1(4,2)-pyridina-2(5,4)-pyrazolacyclonaphan-4-one]
[4]
  efficacy compared with enoxaparin: comparable efficacy to enoxaparin
  safety profile compared with enoxaparin: favorable safety profile
[5]; administration according to the disclosure
  safety and tolerability: generally safe and well tolerated
[5]; whole study
  mean vital signs: no consistent or clinically relevant changes over time in mean vital signs
[2]; 100 mg
  upper limits of all 2-sided 90% CIs of time-matched differences vs placebo in changes from baseline in QTcF: below 10 ms
  highest upper limit of 2-sided 90% CI for ΔΔQTcF: 5.16 ms
[2]; 100 mg twice daily
  upper limits of 90% CI for ΔΔQTcF at milvexian Tmax: below 10 ms
[2]; 100 mg twice daily as capsule
  upper bound of two-sided CI for largest ΔΔQTc (QTcF): less than 10 milliseconds
[2]; 200 mg
  upper limits of all 2-sided 90% CIs of time-matched differences vs placebo in changes from baseline in QTcF: below 10 ms
  highest upper limit of 2-sided 90% CI for ΔΔQTcF: 4.57 ms
[2]; 200 mg twice daily
  upper limits of 90% CI for ΔΔQTcF at milvexian Tmax: below 10 ms
[2]; 200 mg twice daily as solution
  upper bound of two-sided CI for largest ΔΔQTc (QTcF): less than 10 milliseconds
[2]; 100 and 200 mg
  effect on QT interval (QTcF), ICH E14: no effect of clinical or regulatory concern on the QT interval
  effect on QT interval (study-specific and Bazett's correction), ICH E14: no effect of clinical or regulatory concern on the QT interval
[2]; [10]
  QTc interval prolongation: no clinically significant QTc interval prolongation
  ΔΔQTc: less than 10 msec
[2]; therapeutic (100 mg) and supratherapeutic (200 mg)
  evidence of QT/QTc interval prolongation, ICH E14: does not show evidence of QT/QTc interval prolongation of clinical or regulatory concern
[2]; whole study
  ECG abnormalities reported as TEAE: No ECG abnormalities were reported as TEAE
  HR, RR interval, PR interval, QRS width: No consistent or clinically relevant changes over time were observed in HR, RR interval, PR interval, or QRS width
  treatment-emergent QTcF or QTcB values >480 ms or changes >60 ms: No treatment-emergent actual values of QTcF or QTcB>480 ms or changes from baseline >60 ms were observed
  treatment-emergent actual values of QTc>480 ms: No treatment-emergent actual values of QTc>480 ms were observed
  treatment-emergent changes from baseline of QTcF or QTcP>60 ms: No treatment-emergent changes from baseline of QTcF or QTcP>60 ms were observed
[6]; 25 mg BID, Day 1 4 h, N=254
  FXI Clotting Activity percent change from baseline, mean: −7.21%
  FXI Clotting Activity percent change from baseline, median: −8.48%
  FXI Clotting Activity value, median: 100.0%
[6]; 25 mg BID, Day 1 12 h, N=241
  FXI Clotting Activity percent change from baseline, mean: −6.89%
  FXI Clotting Activity percent change from baseline, median: −7.63%
[6]; 25 mg BID, Day 1 24 h, N=253
  FXI Clotting Activity percent change from baseline, mean: −9.69%
  FXI Clotting Activity percent change from baseline, median: −11.30%
[6]; [11]
  FXI Clotting Activity percent change from baseline, mean: −18.1%
  FXI Clotting Activity percent change from baseline, median: −19.10%
[6]; [12]
  FXI Clotting Activity percent change from baseline, mean: −17.7%
  FXI Clotting Activity percent change from baseline, median: −20.16%
[6]; milvexian treated groups
  dose-response of Factor XI clotting activity: dose-dependent decreases in the Factor XI clotting activity
[7]
  steady state mean (std) Cmax: 346 (129) ng/mL
[7]; […]
  steady state mean (std) AUC0-24: 7290 (2940) ng*h/mL
[8]
  early treatment discontinuation rate: 31.60%

Source: patent US20260315474A1 (BRISTOL-MYERS SQUIBB COMPANY, priority 2023, published 2026)
